How the values were obtained:
Carbonic anhydrase 3 = Carbonic anhydrase 3 (Homo sapiens, UniProt P07451)
Carbonic anhydrase 13 = Carbonic anhydrase 13 (Homo sapiens, UniProt Q8N1Q1)
Chain of Carbonic anhydrase 13 (Q8N1Q1 whole entry): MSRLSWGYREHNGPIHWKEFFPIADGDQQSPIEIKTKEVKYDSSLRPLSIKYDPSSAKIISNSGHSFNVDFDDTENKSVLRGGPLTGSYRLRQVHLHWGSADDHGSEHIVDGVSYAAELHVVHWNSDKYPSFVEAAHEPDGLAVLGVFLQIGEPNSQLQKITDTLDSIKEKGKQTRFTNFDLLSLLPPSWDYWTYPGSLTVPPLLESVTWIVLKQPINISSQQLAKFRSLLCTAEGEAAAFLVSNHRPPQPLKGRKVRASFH

Chain of Carbonic anhydrase 3 (P07451 whole entry): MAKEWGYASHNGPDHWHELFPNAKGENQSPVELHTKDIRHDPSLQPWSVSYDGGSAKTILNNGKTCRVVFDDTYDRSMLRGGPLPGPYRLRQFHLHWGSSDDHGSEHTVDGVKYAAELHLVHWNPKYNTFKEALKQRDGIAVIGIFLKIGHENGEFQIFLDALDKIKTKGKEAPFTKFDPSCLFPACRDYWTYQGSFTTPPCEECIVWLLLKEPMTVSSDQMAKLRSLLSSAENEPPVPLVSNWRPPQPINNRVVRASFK

Ki (Carbonic anhydrase 3) [nM] | Ki (Carbonic anhydrase 13) [nM] | SMILES
800000 | 125 | NS(=O)(=O)c1ccc(NC(=O)Cc2cccs2)cc1
 | 23 | NS(=O)(=O)c1cc(Cl)c(Cl)c(S(N)(=O)=O)c1 [DICHLORPHENAMIDE]

From ChEMBL document CHEMBL1795230, “Conformational variability of different sulfonamide inhibitors with thienyl-acetamido moieties attributes to differential binding in the active site of cytosolic human carbonic anhydrase isoforms” (Bioorg Med Chem, 2011)
